Test results reported in the NIST ThermoML archive (doi:10.1016/j.jct.2017.08.028).

Settings: Crystal; for molar entropy: 100 kPa, Small (less than 1 g) adiabatic calorimetry; for mass density: 101.33 kPa, X-ray diffraction

O[C@H]1[C@H](O)[C@@H](O)[C@H](O)[C@@H](O)[C@H]1O [cis-1,2,3,5-trans-4,6-cyclohexanehexol]
Settings	mass density [kg/m3]	molar entropy [J/K/mol]
5 K	–	0.0237
6 K	–	0.0492
7 K	–	0.091
8 K	–	0.1546
9 K	–	0.2451
10 K	–	0.3742
15 K	–	1.491
20 K	–	3.261
25 K	–	5.458
30 K	–	7.964
35 K	–	10.69
40 K	–	13.58
45 K	–	16.57
50 K	–	19.63
60 K	–	25.97
70 K	–	32.56
80 K	–	39.37
90 K	–	46.36
100 K	–	53.48
110 K	–	60.72
120 K	–	68.03
130 K	–	75.4
140 K	–	82.82
150 K	1577	90.26
160 K	–	97.71
170 K	–	105.2
175 K	1574	–
180 K	–	112.6
190 K	–	120.1
200 K	1574	127.6
210 K	–	135
220 K	–	142.4
225 K	1575	–
230 K	–	149.9
240 K	–	157.3
250 K	1572	164.8
260 K	–	172.2
270 K	–	179.6
273.15 K	–	182
275 K	1570	–
280 K	–	187.1
290 K	–	194.5
298.15 K	–	200.6
300 K	1569	202
310 K	–	209.4
320 K	–	216.9
325 K	1569	–
330 K	–	224.3
340 K	–	231.8
350 K	1566	–
375 K	1561	–
400 K	1559	–
425 K	1555	–
450 K	1553	–
